Measurements: the supplement of paper PMC10307832

Assays:
Test in all cases: relative viability (nuclei count vs DMSO), 5 days (fraction); higher = more cells survive
[1] = compound: C1COCCN1C2=NC(=NC3=C2OC4=C3C=CC=N4)C5=CC(=CC=C5)NC(=O)C6=CN=C(C=C6)N + Nc1nc2[nH]cc(CCc3ccc(C(=O)N[C@@H](CCC(=O)O)C(=O)O)cc3)c2c(=O)[nH]1 [Pemetrexed] (partner 0.2 µM)
Summary of the method: (§1)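 Lung cancer cell lines were seeded in 1536-well plates and dosed by pin tool the next day, with either a single drug or a fixed anchor-drug dose combined with five library-drug doses (not always all listed) spaced in √10 steps. Five days later, one step fixed the cells and stained their nuclei (final 0.05% Triton X-100, 1% formaldehyde, 1 ug/ml Hoechst), and nuclei were counted on 4× images. Relative viability is the nuclei count in treated wells divided by the count in vehicle wells, and each value is the median of duplicate plates.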

SGI-1776 + Bortezomib = compound: CN1CCC(CNc2ccc3ncc(-c4cccc(OC(F)(F)F)c4)n3n2)CC1 [SGI-1776] + CC(C)C[C@H](NC(=O)[C@H](Cc1ccccc1)NC(=O)c1cnccn1)B(O)O [Bortezomib] (partner 0.002 µM)
Summary of the method: as §1

SGI-1776 + Luminespib = compound: CN1CCC(CNc2ccc3ncc(-c4cccc(OC(F)(F)F)c4)n3n2)CC1 [SGI-1776] + CCNC(=O)c1noc(-c2cc(C(C)C)c(O)cc2O)c1-c1ccc(CN2CCOCC2)cc1 [Luminespib] (partner 0.01 µM)
Summary of the method: as §1

Entinostat + Luminespib = compound: Nc1ccccc1NC(=O)c1ccc(CNC(=O)OCc2cccnc2)cc1 [Entinostat] + CCNC(=O)c1noc(-c2cc(C(C)C)c(O)cc2O)c1-c1ccc(CN2CCOCC2)cc1 [Luminespib] (partner 0.01 µM)
Summary of the method: as §1

Cell Line | relative viability ([1]; first compound 0.02 µM) | relative viability ([1]; first compound 0.06325 µM) | relative viability ([1]; first compound 0.2 µM) | relative viability ([1]; first compound 0.6325 µM) | relative viability ([1]; first compound 2 µM) | relative viability (SGI-1776 + Bortezomib; first compound 0.08 µM) | relative viability (SGI-1776 + Bortezomib; first compound 0.8 µM) | relative viability (SGI-1776 + Bortezomib; first compound 2.53 µM) | relative viability (SGI-1776 + Bortezomib; first compound 8 µM) | relative viability (SGI-1776 + Luminespib; first compound 0.08 µM) | relative viability (SGI-1776 + Luminespib; first compound 0.8 µM) | relative viability (SGI-1776 + Luminespib; first compound 2.53 µM) | relative viability (SGI-1776 + Luminespib; first compound 8 µM) | relative viability (Entinostat + Luminespib; first compound 0.02 µM) | relative viability (Entinostat + Luminespib; first compound 0.06325 µM) | relative viability (Entinostat + Luminespib; first compound 0.2 µM) | relative viability (Entinostat + Luminespib; first compound 0.6325 µM) | relative viability (Entinostat + Luminespib; first compound 2 µM)
NCI-H3122 | 0.207 | 0.199 | 0.183 | 0.186 | 0.183 | 1.06 | 1.01 | 1.08 | 1.01 | 0.089 | 0.096 | 0.0857 | 0.0863 | 0.129 | 0.141 | 0.102 | 0.0843 | 0.073
PC-3 [JPC-3] | 1.21 | 1.09 | – | 1.08 | 1.17 | 0.867 | 0.806 | 0.845 | 0.687 | 0.739 | 0.573 | 0.741 | 0.628 | 0.726 | 0.668 | 0.5 | 0.51 | 0.365
PC-14 | 0.14 | 0.135 | 0.129 | 0.0787 | 0.0733 | 0.846 | 0.915 | 0.99 | 0.566 | 0.154 | 0.138 | 0.126 | 0.129 | 0.135 | 0.256 | 0.151 | 0.143 | 0.114
RERF-LC-KJ | 0.507 | 0.46 | 0.484 | 0.457 | 0.376 | 1.1 | 1.08 | 0.956 | 1.04 | 1.23 | 1.17 | 0.904 | 0.688 | 1.13 | 1.16 | 1.02 | 0.438 | 0.322
SK-LU-1 | 1.07 | 0.953 | 1.06 | 0.917 | 0.465 | 1.28 | 1.31 | 1.52 | 0.807 | 0.217 | 0.192 | 0.19 | 0.167 | 0.207 | 0.202 | 0.227 | 0.2 | 0.212
SW 1573 | 0.925 | 0.731 | 0.794 | 0.812 | 0.322 | 1.03 | 0.872 | 1.07 | 0.935 | 0.281 | 0.653 | 0.314 | 0.185 | 0.531 | 0.35 | 0.162 | 0.262 | 0.217
